# US12071414B2, “Apelin receptor agonists and methods of use thereof” (Sanford Burnham Prebys Medical Discovery Institute, priority 2015, dated 2024)
# pEC50: −log10 of the molar value.
# Target: T1, human apelin receptor (APJ, AGTRL-one, APLNR) (Homo sapiens, UniProt P35414)
# T1 construct: host or cells: Chinese hamster ovary cells, stably integrated receptor
# T1 sequence (P35414 1-380): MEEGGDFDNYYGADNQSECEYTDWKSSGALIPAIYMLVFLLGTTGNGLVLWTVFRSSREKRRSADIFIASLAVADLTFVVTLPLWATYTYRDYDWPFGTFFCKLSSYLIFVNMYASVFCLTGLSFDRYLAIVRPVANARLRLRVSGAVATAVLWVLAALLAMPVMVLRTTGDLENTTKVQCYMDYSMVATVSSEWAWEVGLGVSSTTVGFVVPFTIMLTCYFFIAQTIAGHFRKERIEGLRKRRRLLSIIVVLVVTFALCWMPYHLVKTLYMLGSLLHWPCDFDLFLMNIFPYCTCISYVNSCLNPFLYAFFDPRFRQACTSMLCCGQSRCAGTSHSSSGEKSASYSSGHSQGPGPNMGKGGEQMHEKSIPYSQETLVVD
# Assay: cell-based cAMP TR-FRET assay of apelin receptor activation
# Conditions: CHO cells expressing human APJ, forskolin-stimulated cAMP, 0.5 h incubation, 50% of control (apelin-13, 1 nM) response; read-out: Potency Category (EC50)
# Method: The assays disclosed herein were performed using cell lines from DiscoveX, Inc. Biological activity was determined to the cell—based assay. This assay detects activation of the receptor by reporting on intracellular cyclic adenosine monophosphate (cAMP) level. Chinese hamster ovary cells engineered to express the stably integrated human apelin receptor (APJ, AGTRL—one, APLNR), pleaded into the wells of the microtiter plate. Cells were stimulated with […] to increase intracellular cyclic AMP. Immediately following, compounds were added to the range of final concentrations 0.0-100 μM, in DMSO (not to exceed a final DMSO concentration greater than 1% ν/ν), and allowed to incubate with the cells for 0.5 h. At the end of the incubation, cells were lysed to stop APJ signaling and cAMP was quantified using a commercially available competitive immunoassay kit that applies homogenous time—resolved florescence energy transfer (TR—FRET). The assay is based on the competition between a europium (Eu) chelate—labeled cAMP donor tracer and cellular cAMP for binding sites on a cAMP—specific monoclonal antibody labeled with an acceptor fluorophore. When antibodies are bound to the cAMP tracer light emissions at 320 nm stimulate the energy transfer from the donor to the acceptor, which in turn emits light at 665 nm. In the presence of competitive unlabeled cAMP (derived from the activity of the receptor or forskolin-stimulated production of cAMP), the labelled cAMP tracer is dissociated from the cAMP antibody, resulting in a loss of FRET signal. The amount of light emitted by the FRET is inversely proportional to the cAMP generated by the cell/receptor system. Potency and efficacy at APJ are reported in reference to the canonical APJ receptor agonist apelin—13 when tested at 1 nM. […] Compound efficacy (% response) is reported as a percentage of the maximal apein-13 response at 1 nM (control). Potencies were calculated by fitting a […] logistic curve to concentration response consisting of at least 10 discrete data points spanning effective range of the compounds in the cell-based assay that measures cAMP. […] Category B is 200-500 nM; Category C is 100-200 nM; Category D is 50-100 nM; and Category E is <50 nM.
row,SMILES,pEC50
1,CCS(=O)(=O)c1ccc(C(Oc2ccc(C#N)cc2)C(=O)Nc2nc3ccc(OC)cc3s2)cc1 (centres unmarked),< 6.30
2,CCS(=O)(=O)c1ccc(C(OC2CCCCC2)C(=O)Nc2nc3cc(OC)c(OC)cc3s2)cc1 (centres unmarked),< 6.30
3,CCS(=O)(=O)c1ccc(C(Oc2ccc(OC)cc2)C(=O)Nc2nc3ccc(N4CCN(C)CC4)cc3s2)cc1 (centres unmarked),< 6.30
4,CCS(=O)(=O)c1ccc(C(Oc2ccc(C#N)cc2)C(=O)Nc2nc3cnc(OC)cc3s2)cc1 (centres unmarked),< 6.30
5,CCS(=O)(=O)c1ccc(C(Oc2ccc(C#N)cc2)C(=O)Nc2nc3cc(OCC4CC4)c(OC)cc3s2)cc1 (centres unmarked),< 6.30
6,CCS(=O)(=O)c1ccc(C(Oc2ccc(C#N)cc2)C(=O)Nc2nc3cc(C)c(OC)cc3s2)cc1 (centres unmarked),< 6.30
7,COc1ccc(OC(C(=O)Nc2nc3cc(OC)c(OC)cc3s2)c2ccccc2S(=O)(=O)c2ccc(OC)cc2)cc1 (centres unmarked),< 6.30
8,CCS(=O)(=O)c1ccc(C(Oc2ccc(C#N)cc2)C(=O)Nc2cc3cc(OC)c(OC)cc3[nH]2)cc1 (centres unmarked),< 6.30
9,COc1cc2nc(NC(=O)C(Oc3ccccc3)c3ccc(C#N)cc3)sc2cc1OC (centres unmarked),< 6.30
10,COc1cc2nc(NC(=O)C(Oc3ccc(C#N)cc3)c3ccc(S(=O)(=O)c4ccc(C(F)(F)F)cc4)cc3)sc2cc1OC (centres unmarked),< 6.30
11,CCS(=O)(=O)c1ccc(CC(=O)Nc2nc3cc(N(C)C)ccc3s2)cc1,< 6.30
12,CCS(=O)(=O)c1ccc(C(Oc2ccc(OC)cc2)C(=O)Nc2nc3cc4c(cc3s2)OCO4)cc1 (centres unmarked),< 6.30
13,CCS(=O)(=O)c1ccc(C(Oc2ccc(C#N)cc2)C(=O)Nc2nc3ccccc3o2)cc1 (centres unmarked),< 6.30
14,CCCc1ccc(OC(C(=O)Nc2nc3cc(OC)c(OC)cc3s2)c2ccc(S(=O)(=O)CC)cc2)cc1 (centres unmarked),6.30 to 6.70
15,CCS(=O)(=O)c1ccc(C(Oc2ccc(C#N)cc2)C(=O)Nc2nc3cc(OCCN4CCOCC4)c(OC)cc3s2)cc1 (centres unmarked),< 6.30
16,CCS(=O)(=O)c1ccc(C(Oc2ccc(C#N)cc2)C(=O)Nc2nc3cc(OCCN(C)C)c(OC)cc3s2)cc1 (centres unmarked),< 6.30
17,COc1cc2nc(NC(=O)C(Oc3ccc(C#N)cc3)c3ccc(OCCN4CCCCC4)cc3)sc2cc1OC (centres unmarked),6.30 to 6.70
18,CCS(=O)(=O)c1cccc(C(Oc2ccc(C#N)cc2)C(=O)Nc2nc3cc(OC)c(OC)cc3s2)c1 (centres unmarked),6.30 to 6.70
19,CCS(=O)(=O)c1ccc(CC(=O)Nc2nc3cc(OC)c(O)cc3[nH]2)cc1,< 6.30
20,CCS(=O)(=O)c1ccc(C(Oc2ccc(C#N)cc2)C(=O)Nc2nc3cc(OC(C)C)c(OC)cc3s2)cc1 (centres unmarked),6.30 to 6.70
21,COc1cc2nc(NC(=O)C(Oc3ccc(C#N)cc3)c3ccc(OCCN4CCCC4)cc3)sc2cc1OC (centres unmarked),6.30 to 6.70

row,SMILES,pEC50
1,CCS(=O)(=O)c1ccc(C(OC2CCOCC2)C(=O)Nc2nc3cc(OC)c(OC)cc3s2)cc1 (centres unmarked),< 6.30
2,COc1cc2nc(NC(=O)Cc3ccc(C(=O)N(C)C)cc3)sc2cc1OC,< 6.30
3,COc1cc2nc(NC(=O)Cc3cccc(S(=O)(=O)CC4CC4)c3)sc2cc1OC,< 6.30
4,CCS(=O)(=O)c1ccc(C(Oc2ccc(C#N)cc2)C(=O)Nc2nc3ccc(F)c(OC)c3s2)cc1 (centres unmarked),< 6.30
5,COc1cc2nc(NC(=O)Cc3ccc(C(=O)O)cc3)sc2cc1OC,< 6.30
6,CCCCc1ccc(OC(C(=O)Nc2nc3cc(OC)c(OC)cc3s2)c2ccc(S(=O)(=O)CC)cc2)cc1 (centres unmarked),< 6.30
7,CCS(=O)(=O)c1ccc(C(Oc2ccc(C3CCCCC3)cc2)C(=O)Nc2nc3cc(OC)c(OC)cc3s2)cc1 (centres unmarked),< 6.30
8,COc1cc2nc(NC(=O)Cc3ccc(S(=O)(=O)CC4CC4)cc3)sc2cc1OC,< 6.30
9,COc1cc2nc(NC(=O)C(Oc3ccc(C#N)cc3)c3ccc(-c4nnn[nH]4)cc3)sc2cc1OC (centres unmarked),< 6.30
10,CCS(=O)(=O)c1ccc(C(OC(C)C)C(=O)Nc2nc3cc(OC)c(OC)cc3s2)cc1 (centres unmarked),< 6.30
11,CCS(=O)(=O)c1ccc(C(Oc2cccc(C)c2)C(=O)Nc2nc3cc(OC)c(OC)cc3s2)cc1 (centres unmarked),< 6.30
12,CCS(=O)(=O)c1ccc(C(Oc2ccc(OC)cc2)C(=O)Nc2nc3ccc4c(c3s2)OCCO4)cc1 (centres unmarked),< 6.30
13,COc1cc2nc(NC(=O)C(Oc3ccc(C#N)cc3)c3ccc(OCCN4CCOCC4)cc3)sc2cc1OC (centres unmarked),6.30 to 6.70
14,COc1cc2nc(NC(=O)C(Oc3ccc(C#N)cc3)c3ccc(C(=O)O)cc3)sc2cc1OC (centres unmarked),< 6.30
15,COc1cc2nc(NC(=O)Cc3ccccc3C(=O)N(C)C)sc2cc1OC,< 6.30
16,COc1cc2nc(NC(=O)C(Oc3ccc(-c4nnn[nH]4)cc3)c3ccc(C#N)cc3)sc2cc1OC (centres unmarked),< 6.30
17,CCS(=O)(=O)c1ccc([C@H](Oc2ccc(C#N)cc2)C(=O)Nc2nc3cc(OC)c(OC)cc3s2)cc1,6.30 to 6.70
18,CCS(=O)(=O)c1ccc(C(Oc2ccc(C#N)cc2)C(=O)Nc2nc3ccc(OCCO)cc3s2)cc1 (centres unmarked),< 6.30
19,CCS(=O)(=O)c1ccc(C(Oc2ccc(OC)cc2)C(=O)Nc2nc3ccc(OC)cc3s2)cc1 (centres unmarked),< 6.30
20,CCOc1ccc(OC(C(=O)Nc2nc3cc(OC)c(OC)cc3s2)c2ccc(S(=O)(=O)CC)cc2)cc1 (centres unmarked),6.30 to 6.70
21,CCS(=O)(=O)c1ccc(C(CCOC)C(=O)Nc2nc3cc(OC)c(OC)cc3s2)cc1 (centres unmarked),< 6.30

# Results, then the compound that gave them:
row,pEC50,SMILES
1,6.30 to 6.70,CCS(=O)(=O)c1ccc(C(Oc2ccc(C(F)(F)F)cc2)C(=O)Nc2nc3cc(OC)c(OC)cc3s2)cc1 (centres unmarked)
2,> 7.30,COc1cc2nc(NC(=O)C(Oc3ccc(C#N)cc3)c3ccc(C(=O)N4CCN(C)CC4)cc3)oc2cc1OC (centres unmarked)
3,6.30 to 6.70,COc1cc2nc(NC(=O)C(Oc3ccc(C#N)cc3)c3cccc(S(=O)(=O)c4ccc(Cl)cc4)c3)sc2cc1OC (centres unmarked)
4,> 7.30,CCOc1c(OC)ccc2nc(NC(=O)C(Oc3ccc(C#N)cc3)c3ccc(S(=O)(=O)CC)cc3)sc12 (centres unmarked)
5,6.30 to 6.70,COc1cc2nc(NC(=O)C(Oc3ccc(C(=O)NCCN4CCOCC4)cc3)c3ccc(C#N)cc3)sc2cc1OC (centres unmarked)
6,7.00 to 7.30,COCCNC(=O)c1ccc(C(Oc2ccc(C#N)cc2)C(=O)Nc2nc3cc(OC)c(OC)cc3o2)cc1 (centres unmarked)
7,6.30 to 6.70,COc1cc2nc(NC(=O)C(Oc3ccc(C#N)cc3)c3ccc(S(=O)(=O)Cc4ccccc4)cc3)sc2cc1OC (centres unmarked)
8,> 7.30,CCS(=O)(=O)c1ccc(C(Oc2ccc(C#N)cc2)C(=O)Nc2nc3cc(OC)c(OC)cc3o2)cc1 (centres unmarked)
9,6.30 to 6.70,CCCCS(=O)(=O)c1ccccc1C(Oc1ccc(C#N)cc1)C(=O)Nc1nc2cc(OC)c(OC)cc2s1 (centres unmarked)
10,6.70 to 7.00,CCS(=O)(=O)c1ccc(C(Oc2ccc(Cl)cc2)C(=O)Nc2nc3cc(OC)c(OC)cc3s2)cc1 (centres unmarked)
11,> 7.30,CCS(=O)(=O)c1ccc(C(Oc2ccc(C#N)cc2F)C(=O)Nc2nc3cc(OC)c(OC)cc3s2)cc1 (centres unmarked)
12,7.00 to 7.30,CCS(=O)(=O)c1ccc(C(Oc2ccc(C#N)cc2)C(=O)N(C)c2nc3cc(OC)c(OC)cc3s2)cc1 (centres unmarked)
13,7.00 to 7.30,COc1cc2nc(NC(=O)C(Oc3ccc(C#N)cc3)c3ccc(C(=O)NCCN(C)C)cc3)sc2cc1OC (centres unmarked)
14,7.00 to 7.30,COc1cc2nc(NC(=O)C(Oc3ccc(OCCN4CCOCC4)cc3)c3ccc(C#N)cc3)sc2cc1OC (centres unmarked)
15,6.70 to 7.00,COC(=O)c1ccc(C(Oc2ccc(C#N)cc2)C(=O)Nc2nc3cc(OC)c(OC)cc3s2)cc1 (centres unmarked)
16,> 7.30,CCS(=O)(=O)c1ccc(C(Oc2ccc(C#N)cc2)C(=O)Nc2nc3cc(OC)c(OC)cc3s2)cc1 (centres unmarked)
17,7.00 to 7.30,COc1cc2nc(NC(=O)C(Oc3ccc(C#N)cc3)c3ccc(C(=O)NCCO)cc3)sc2cc1OC (centres unmarked)
18,> 7.30,CCS(=O)(=O)c1ccc(C(Oc2ccc(C(=O)OC)cc2)C(=O)Nc2nc3cc(OC)c(OC)cc3s2)cc1 (centres unmarked)
19,6.70 to 7.00,COc1cc2nc(NC(=O)C(Oc3ccc(C#N)cc3)c3ccccc3S(=O)(=O)C(C)C)sc2cc1OC (centres unmarked)
20,> 7.30,CCS(=O)(=O)c1ccc(C(Oc2ccc(C#N)cc2)C(=O)Nc2nc3cc(OCCF)c(OC)cc3s2)cc1 (centres unmarked)
